The IC50 is the concentration that gives 50% inhibition.

For 35 compounds, IC50, inhibition and Activity results are on record in ChEMBL document CHEMBL5052835, “Slc26a3 inhibitors and use thereof” (2021).

Series [1] deals with T1, Chloride anion exchanger (Mus musculus, UniProt Q9WVC8).
T1 sequence (Q9WVC8 whole entry): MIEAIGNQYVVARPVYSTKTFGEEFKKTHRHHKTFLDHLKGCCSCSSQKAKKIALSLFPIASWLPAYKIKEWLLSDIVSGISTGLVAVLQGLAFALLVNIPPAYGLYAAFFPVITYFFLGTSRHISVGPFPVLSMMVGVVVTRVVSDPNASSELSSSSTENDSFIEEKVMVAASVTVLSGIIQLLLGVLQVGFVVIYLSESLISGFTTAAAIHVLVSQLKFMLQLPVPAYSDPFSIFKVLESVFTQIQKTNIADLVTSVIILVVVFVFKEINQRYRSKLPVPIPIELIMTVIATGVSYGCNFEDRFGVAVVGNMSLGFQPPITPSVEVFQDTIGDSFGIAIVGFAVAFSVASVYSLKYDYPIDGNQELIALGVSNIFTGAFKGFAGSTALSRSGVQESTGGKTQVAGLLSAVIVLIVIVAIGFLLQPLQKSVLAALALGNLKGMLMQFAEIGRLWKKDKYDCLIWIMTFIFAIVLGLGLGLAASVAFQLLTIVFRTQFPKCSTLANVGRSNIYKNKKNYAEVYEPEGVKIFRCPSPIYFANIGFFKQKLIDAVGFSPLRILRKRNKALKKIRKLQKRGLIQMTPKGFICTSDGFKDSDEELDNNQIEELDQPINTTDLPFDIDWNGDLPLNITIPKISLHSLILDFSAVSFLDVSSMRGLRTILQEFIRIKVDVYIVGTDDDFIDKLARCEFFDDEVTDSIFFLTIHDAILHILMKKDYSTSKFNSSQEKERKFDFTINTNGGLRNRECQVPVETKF
The series can be described thus: Inhibition of mouse Slc26a3 transfected in rat FRT cells preincubated with forskolin, 8-Br-cGMP and PMA and measured by fluorescence assay. In kind it is cell-based.

The test system of series [2] is Mus musculus. The series can be described thus: In vivo inhibition of slc26a3 in loperamide-induced constipation model of female CD-1 mouse at 5 mg/kg, po assessed as reduction in stool water content. It is filed as functional, organism-based.
In series [3] the test system is Mus musculus. The series can be described thus: In vivo inhibition of slc26a3 in loperamide-induced constipation model of female CD-1 mouse at 5 mg/kg, po assessed as reduction in stool weight. It is filed as functional, organism-based.
For series [4], the system named is Mus musculus. The series can be described thus: In vivo inhibition of slc26a3 in loperamide-induced constipation model of female CD-1 mouse at 5 mg/kg, po assessed as reduction in pellet number. It is filed as functional, organism-based.
In series [5] the test system is Mus musculus. The series can be described thus: In vivo inhibition of […] in loperamide-induced constipation model of female CD-1 mouse at 5 mg/kg, po assessed as reduction in stool water content. In kind it is functional, organism-based.
Series [6] concerns Mus musculus. The series can be described thus: In vivo inhibition of […] in loperamide-induced constipation model of female CD-1 mouse at 5 mg/kg, po assessed as reduction in stool weight. In kind it is functional, organism-based.
For series [7], the system named is Mus musculus. The series can be described thus: In vivo inhibition of […] in loperamide-induced constipation model of female CD-1 mouse at 5 mg/kg, po assessed as reduction in pellet number. It is filed as functional, organism-based.
Series [8] relates to Colon. The series can be described thus: Inhibition of fluid absorption in distal colonic loop isolated from female CD-1 mouse at 10 uM assessed as effect on reduction in loop weight/length ratio. In kind it is functional, tissue-based.
For series [9], the system named is Mus musculus. The series can be described thus: In vivo inhibition of slc26a3 in loperamide-induced constipation model of female CD-1 mouse at 1 to 10 mg/kg, po assessed as reduction in stool water content. In kind it is functional, organism-based. The conditions noted are these: dose 1-10 mg/kg.
Series [10] relates to Mus musculus. The series can be described thus: Inhibition of oxalate absorption in sodium oxalate-induced acute hyperoxaluria mouse model at 10 mg/kg, ip. In kind it is functional, organism-based.
Series [11] is described as follows: Toxicity in loperamide-induced constipation model of female CD-1 mouse at 10 mg/kg, po assessed as effect on stool parameters. The conditions noted are these: in vivo. In kind it is organism-based.
The species named for series [12] is Mus musculus. The series can be described thus: Inhibition of oxalate absorption in high oxalate and low calcium diet-induced oxalate nephropathy model of mouse assessed as normalization of creatinine level. It is filed as functional, organism-based.
The test system of series [13] is Mus musculus. The series can be described thus: In vivo inhibition of slc26a3 in loperamide-induced constipation model of female CD-1 mouse at 1 to 10 mg/kg, po assessed as reduction in stool weight. It is filed as functional, organism-based. The settings on record: dose 1-10 mg/kg.
In series [14] the test system is Mus musculus. The series can be described thus: In vivo inhibition of slc26a3 in loperamide-induced constipation model of female CD-1 mouse at 1 to 10 mg/kg, po assessed as reduction in pellet number. In kind it is functional, organism-based. The conditions noted are these: dose 1-10 mg/kg.
Series [15] is described as follows: Toxicity in loperamide-induced constipation model of female CD-1 mouse at 10 mg/kg, po assessed as diarrhea. The settings on record: in vivo. It is filed as organism-based.

The source made the active and inactive calls. No cut-off for these calls is given here.

Take `Cc1cc(C)cc(-n2ccnc2SCC(=O)Nc2ccc(C)c(Cl)c2)c1`: the IC50 in series [1] (read-out: IC50) turned out to be 2100 nM.
As for `COC(=O)CCc1c(C)c2ccc(OCc3ccc(C(C)(C)C)cc3)c(C)c2oc1=O`, the IC50 entry in [1] (frt) is on record as “Not Active”.
`O=C(CSc1nccn1-c1ccc(F)cc1)Nc1ccc(Cl)c(Cl)c1`: in series [1] (read-out: IC50), the IC50 stood at 2600 nM.
For the compound `CCOc1ccc(-n2ccnc2SCC(=O)Nc2ccc(Cl)cc2)cc1`, the IC50 in series [1] (read-out: IC50) turned out to be 1700 nM.
The same measure, in the same setting: in the case of `Cc1ccc(NC(=O)CSc2nccn2-c2ccc(Cl)cc2)cc1` it was 1600 nM; in that of `Cc1c(CC(=O)O)c(=O)oc2c(C)c(OCc3ccc(C(C)(C)C)cc3)ccc12`, 4600 nM; in that of `Cc1cc(C)cc(-n2ccnc2SCC(=O)Nc2ccc(Cl)cc2)c1`, 4600 nM.
On to `Cc1c(CC(=O)O)c(=O)oc2c(C)c(OCc3ccccc3F)ccc12`, for which the IC50 in series [1] (read-out: IC50) is 510 nM.
For `CCc1ccc(NC(=O)CSc2nccn2-c2ccc(Cl)cc2)cc1`, in series [1] (read-out: IC50), the IC50 came to 5700 nM.
Consider `Cc1c(CC(=O)O)c(=O)oc2c(C)c(OCc3cccc(F)c3)ccc12`, for which the IC50 in [1] (read-out: IC50) was 840 nM.
On to `O=C(CSc1nccn1-c1ccc(Cl)cc1)Nc1ccc(Br)cc1`, for which the IC50 in [1] (read-out: IC50) was determined as 1800 nM.
The same measure, in the same setting: under `COc1cccc(-n2ccnc2SCC(=O)Nc2ccc(C)cc2)c1` stands 7100 nM; under `Cc1ccc(NC(=O)CSc2nccn2-c2ccc(Cl)cc2)cc1Cl`, 11000 nM; under `CCCCCOc1ccc2c(C)c(CC(=O)O)c(=O)oc2c1C`, 1200 nM.
As to `Cc1c(CCC(=O)O)c(=O)oc2c(C)c(OCc3ccc(F)cc3)ccc12`, in series [1] (frt), the IC50 entry was “Not Active”.
As to `Cc1c(CC(=O)O)c(=O)oc2c(C)c(OCc3cccc(C(F)(F)F)c3)ccc12`, the inhibition result in series [2], in series [3] and in [4] was “Active” each time.
On to `CCc1ccc(NC(=O)CSc2nccn2-c2ccc(OC)cc2)cc1`, for which the IC50 in [1] (read-out: IC50) came out at 6500 nM.
Turning to `Cc1cc(C)cc(-n2ccnc2SCC(=O)Nc2ccc(Cl)c(Cl)c2)c1`, the IC50 in [1] (read-out: IC50) came out at 2500 nM.
On to `Cc1cc(C)cc(COc2ccc3c(C)c(CC(=O)O)c(=O)oc3c2C)c1`, for which the half-inhibitory concentration (IC50) in series [1] (read-out: IC50) came out at 540 nM.
Still for that read-out and setting: in the case of `O=C(CSc1nccn1-c1ccc(Cl)cc1)Nc1cccc(C(F)(F)F)c1` it was 12000 nM.
On to `CN1Cc2c(Cl)cc(Cl)cc2[C@H](c2cccc(S(=O)(=O)NCCOCCOCCNC(=O)NCCCCNC(=O)NCCOCCOCCNS(=O)(=O)c3cccc([C@@H]4CN(C)Cc5c(Cl)cc(Cl)cc54)c3)c2)C1`, for which the inhibition result in [5], in [6] and in series [7] was “Active” each time. In addition, the inhibition entry in [8] is “inactive”.
As to `O=C(CSc1nccn1-c1cccc(Cl)c1)Nc1ccc(Cl)cc1`, the IC50 in series [1] (read-out: IC50) was found to be 2200 nM.
With `Cc1ccc2ccccc2c1COc1ccc2c(C)c(CCC(=O)O)c(=O)oc2c1C`, in [1] (frt), the half-inhibitory concentration (IC50) entry is given as “Not Active”.
On to `Cc1c(CC(=O)O)c(=O)oc2c(C)c(OCc3cccc(Cl)c3)ccc12`, for which the IC50 in series [1] (read-out: IC50) is 200 nM.
With `O=C(CSc1nccn1-c1cccc(Cl)c1)Nc1ccc(Cl)c(Cl)c1`, in series [1] (read-out: IC50), the IC50 stood at 2900 nM.
In the case of `Cc1c(CC(=O)O)c(=O)oc2c(C)c(OCc3cccc(I)c3)ccc12`, the inhibition result in [9], in series [10], in series [12], in series [13] and in [14] was “Active” throughout. Further, the Activity entry in [11] and in [15] was “Non-Toxic” each time.
As to `Cc1cccc(-n2ccnc2SCC(=O)Nc2ccc(Cl)cc2)c1`, the IC50 in series [1] (read-out: IC50) came to 6200 nM.
With `O=C(CSc1nccn1-c1ccc(Cl)cc1)Nc1ccc(Cl)cc1`, in series [1] (read-out: IC50), the IC50 came out at 1700 nM.
Regarding `COC(=O)CCc1c(C)c2ccc(OCc3cccc(OC)c3)c(C)c2oc1=O`, in [1] (frt), the IC50 result is on record as “Not Active”.
For `Cc1ccc(NC(=O)CSc2nccn2-c2ccccc2)cc1Cl`, the IC50 in series [1] (read-out: IC50) came to 1500 nM.
As to `COc1ccc(-n2ccnc2SCC(=O)Nc2ccc(Br)cc2)cc1`, in series [1] (read-out: IC50), the IC50 amounted to 1900 nM.
As to `Cc1cccc(COc2ccc3c(C)c(CC(=O)O)c(=O)oc3c2C)c1`, in series [1] (read-out: IC50), the IC50 is 480 nM.
`Cc1cccc(-n2ccnc2SCC(=O)Nc2ccc(Br)cc2)c1`: the IC50 in [1] (read-out: IC50) came to 6400 nM.
The same measure, in the same setting: in the case of `O=C(CSc1nccn1-c1ccc(Cl)cc1)Nc1ccc([N+](=O)[O-])cc1` it was 7400 nM.
Turning to `CCc1ccc(NC(=O)CSc2nccn2-c2cccc(C)c2C)cc1`, the IC50 in series [1] (read-out: IC50) came out at 3500 nM.
